Results from PubChem BioAssay (NCI).
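48-hour exposure; five concentrations; linearly interpolated endpoints. TGI: total growth inhibition.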

Key:
Experiment in all cases: inhibition of tumour cell growth, NCI panel, 48 h
SK-MEL-28 melanoma = system: SK-MEL-28 melanoma
U251 CNS = system: U251 CNS
KM12 colon = system: KM12 colon
UACC-62 melanoma = system: UACC-62 melanoma
T-47D breast = system: T-47D breast
HT29 colon = system: HT29 colon
SK-OV-3 ovarian = system: SK-OV-3 ovarian
SW-620 colon = system: SW-620 colon
OVCAR-5 ovarian = system: OVCAR-5 ovarian
A549 NSCLC = system: A549 NSCLC
K-562 leukemia = system: K-562 leukemia
RXF 393 renal = system: RXF 393 renal
TK-10 renal = system: TK-10 renal
HS 578T breast = system: HS 578T breast
786-0 renal = system: 786-0 renal
SNB-19 CNS = system: SNB-19 CNS
HOP-92 NSCLC = system: HOP-92 NSCLC
ACHN renal = system: ACHN renal
MOLT-4 leukemia = system: MOLT-4 leukemia
OVCAR-3 ovarian = system: OVCAR-3 ovarian

SMILES	TGI (SK-MEL-28 melanoma) [µM]	TGI (U251 CNS) [µM]	TGI (KM12 colon) [µM]	TGI (UACC-62 melanoma) [µM]	TGI (T-47D breast) [µM]	TGI (HT29 colon) [µM]	TGI (SK-OV-3 ovarian) [µM]	TGI (SW-620 colon) [µM]	TGI (OVCAR-5 ovarian) [µM]	TGI (A549 NSCLC) [µM]	TGI (K-562 leukemia) [µM]	TGI (RXF 393 renal) [µM]	TGI (TK-10 renal) [µM]	TGI (HS 578T breast) [µM]	TGI (786-0 renal) [µM]	TGI (SNB-19 CNS) [µM]	TGI (HOP-92 NSCLC) [µM]	TGI (ACHN renal) [µM]	TGI (MOLT-4 leukemia) [µM]	TGI (OVCAR-3 ovarian) [µM]
c1ccc(-c2cc(-c3cc(-c4ccccc4)no3)on2)cc1	> 100	> 100	> 100	> 100	> 100	> 100	89.9	> 100	> 100	> 100	49	> 100	> 100	> 100	> 100	> 100	> 100	> 100	81.3	> 100
CC1=C/C(=C(/c2ccc(O)c(C)c2)c2ccccc2C(=O)O)C=CC1=O	40	32.1	36.6	30.9	72.1	42.8	35.1	39	42.3	35.3	44.7	33.8	31.1	52	33.7	32.2	34.8	32.2	43.1	33.2
CCOC(=O)C(SCCO)C(C(=O)OCC)n1cc(C)c(=O)[nH]c1=O (stereo not given)	> 65.6	36.5	> 63.1	40	> 100	32.2	> 100	> 43.1	32.1	> 100	15.8	43.7	> 82.5	> 100	15.6	> 100	71.9	> 57.1	42.1	51.7
Nc1nc(Cl)cc(NCC2(CO)CCC(OCc3ccccc3)C2)n1 (stereo not given)	> 100	> 100	94.6	> 100	52.7	34	62.4	> 100	> 100	> 100	> 100	> 100	60.5	43.9	> 100	> 100	37	> 100	34.3	> 100
Cc1ccc2nc(Cl)c(/C=N/N3C(=O)/C(=C/Cc4ccco4)N=C3c3ccccc3)cc2c1	> 100	> 100	> 93.6	> 100	> 100	> 79.4	> 100	> 100	> 100	> 93.5	> 100	> 100	55.5	> 86.2	47.3	> 90.9	66.5	> 100	> 92	> 100
O=c1[nH][nH]c(=S)c(=O)[nH]1	> 100	> 100	> 100	> 100	> 100	> 100	> 100	> 100	> 100	> 100	> 100	> 100	> 100	> 100	> 100	> 100	> 100	> 100	> 100	> 100
COc1cc(C2c3cc4c(cc3OC(O)C2C)OCO4)cc(OC)c1O (stereo not given)	> 91.6	62.8	> 100	52.4	> 68.6	> 63.3	55.7	> 100	> 100	> 100	> 100	> 43	57.4	46.4	> 100	> 46.4	> 94.3	> 100	> 100	27.4
C=C1C(=O)O[C@H]2[C@H]3O[C@@H](C[C@@H]12)[C@](C)(O)CCCC(C)=CCC[C@H]3C	25.9	29.8	27.1	22.8	44.6	26.7	35.3	23	31.1	33.6	64.7	20.3	14.6	29.2	> 100	32.4	8.45	21.7	8.09	27.5
Cc1c(C)c(C)c(CSC(=N)N)c(C)c1C	28.8	26.4	39.3	24.2	36.6	25.6	34.2	29	29.8	30.9	30.2	33.2	28.4	36.4	32.9	27.9	30.9	30.1	33	32.1
COc1cc(CNC(=O)CCCCCCCCCCSSCCCCCCCCCCC(=O)NCc2ccc(O)c(OC)c2)ccc1O	> 10	> 10	> 10	> 10	> 10	> 10	> 10	> 10	> 10	> 10	> 10	> 10	> 10	> 10	> 10	> 10	> 10	> 10	> 10	> 10
CN(CCNC(=O)c1cc(-c2ccccc2)nc2ccccc12)CCNC(=O)c1cc(-c2ccccc2)nc2ccccc12	5.29	30.9	> 40.5	39.5	> 100	4.74	> 100	24.9	> 55.7	> 100	> 36.7	> 57.7	> 100	99.4	23.5	> 100	14.7	> 100	> 100	> 100
CCNC(=O)Cc1nc2c(=O)[nH]cnc2n1C1OC(CO)C(O)C1O (stereo not given)	> 100	> 100	> 100	> 100	> 100	> 100	> 100	> 100	> 100	> 100	> 100	> 100	> 100	> 100	> 100	> 100	> 100	> 100	> 100	> 100
N=C(N)c1ccc(-c2ccc(-c3ccc(C(=N)N)cc3)o2)cc1	71.7	34.7	> 100	> 100	74.9	> 100	> 100	> 100	99.2	> 100	> 100	> 100	63	56.9	59.7	> 100	> 100	> 100	77.5	> 100
CO/N=C/c1c(-c2ccc(Cl)cc2)c(/C=N/OC)n2c1sc1ccccc12	> 100	> 100	> 100	> 100	> 100	> 100	> 100	> 100	> 100	> 100	> 100	> 100	> 100	> 100	> 100	> 100	> 100	> 100	> 100	> 100
O=C1C(c2c(O)[nH]c3ccc(S(=O)(=O)N(CCO)CCO)cc23)=Nc2ccccc21	> 100	> 100	> 100	> 100	20.3	> 100	> 100	> 100	> 100	> 100	> 100	6.53	> 100	> 100	> 100	> 100	> 100	> 100	> 100	> 100
COc1ccc2nc(-c3ccc(O)cc3)cn2c1	> 100	> 100	> 100	86.2	> 100	> 100	> 100	> 100	> 100	> 100	> 100	> 100	> 100	> 100	> 100	> 100	> 100	> 100	> 100	> 100
O=C1/C(=C/c2ccc(O)cc2)CCc2ccccc21	37	69.7	32.2	46.2	> 100	45	> 89.4	40.1	> 91	64.1	81.3	35.1	> 95.9	94.3	39.1	50.7	91.1	69.5	12.4	52.7
Nc1nc(Cl)cc(NCC2(CO)CC(Cc3ccccc3)C2)n1 (stereo not given)	> 100	> 100	> 100	> 100	> 65.4	> 72.4	> 100	> 100	> 100	> 100	> 81.6	> 93.5	> 96.5	> 100	> 100	> 100	> 88.6	> 100	> 71.4	> 100
CC[C@]12C=CCN3CCC4(c5cc(N=Nc6ccc([N+](=O)[O-])cc6)c(OC)cc5N(C)[C@H]4[C@@](O)(C(=O)OC)[C@@H]1OC(C)=O)[C@@H]32 (stereo not given in full)	> 100	27.4	33.2	> 100	> 100	23.9	> 100	> 100	28.2	> 100	34.6	35.6	63	77.8	25.1	> 100	8.62	67.8	13.1	16.8
